Experimental data taken from the kinase profiling compilation of Christmann-Franck et al. (2016).

How the values were obtained:
Experiment in all cases: KINOMEscan competition binding
Details in all cases: compound 10.0 µM
[1] = molecular target: AAK1 (human) (UniProt Q2M2I8)
[2] = molecular target: ANKK1 (human) (UniProt Q8NFD2)
[3] = molecular target: AURKA (human) (UniProt O14965)
[4] = molecular target: AURKB (human) (UniProt Q96GD4)
[5] = molecular target: BRAF (human) (UniProt P15056)
[6] = tested on: BRAF (human), P15056 [V600E]
[7] = molecular target: CDK14 (human) (UniProt O94921)
[8] = molecular target: CDK16 (human) (UniProt Q00536)
[9] = molecular target: CDK3 (human) (UniProt Q00526)
[10] = molecular target: CHEK1 (human) (UniProt O14757)
[11] = molecular target: CLK3 (human) (UniProt P49761)
CLK3 (human), sequence (P49761 whole entry, looked up): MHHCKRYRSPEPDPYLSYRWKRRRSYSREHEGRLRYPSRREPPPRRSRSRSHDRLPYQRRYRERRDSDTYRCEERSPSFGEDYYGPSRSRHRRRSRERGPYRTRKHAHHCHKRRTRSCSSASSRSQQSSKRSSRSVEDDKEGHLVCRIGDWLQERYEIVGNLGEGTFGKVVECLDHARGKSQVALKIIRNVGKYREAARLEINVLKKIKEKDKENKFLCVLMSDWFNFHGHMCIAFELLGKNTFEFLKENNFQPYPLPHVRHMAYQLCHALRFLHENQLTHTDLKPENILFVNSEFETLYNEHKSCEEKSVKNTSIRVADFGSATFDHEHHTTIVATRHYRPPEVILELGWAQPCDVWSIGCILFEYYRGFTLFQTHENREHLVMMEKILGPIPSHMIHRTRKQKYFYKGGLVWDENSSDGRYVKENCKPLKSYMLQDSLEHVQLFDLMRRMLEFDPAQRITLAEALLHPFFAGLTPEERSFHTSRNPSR

[12] = molecular target: CSF1R (human) (UniProt P07333)
[13] = molecular target: CSNK1A1 (human) (UniProt P48729)
[14] = molecular target: CSNK1D (human) (UniProt P48730)
[15] = molecular target: DYRK1B (human) (UniProt Q9Y463)
[16] = molecular target: ERN1 (human) (UniProt O75460)
[17] = molecular target: FGFR2 (human) (UniProt P21802)
[18] = molecular target: GRK1 (human) (UniProt Q15835)
[19] = tested on: KIT (human), P10721 [D816V]
[20] = molecular target: MAPK3 (human) (UniProt P27361)
[21] = molecular target: MAPKAPK2 (human) (UniProt P49137)
[22] = molecular target: MATK (human) (UniProt P42679)
[23] = molecular target: NEK6 (human) (UniProt Q9HC98)
[24] = molecular target: PAK1 (human) (UniProt Q13153)
[25] = molecular target: PAK4 (human) (UniProt O96013)
[26] = molecular target: PDGFRA (human) (UniProt P16234)
[27] = molecular target: PIK3C2B (human) (UniProt O00750)
PIK3C2B (human), sequence (O00750 whole entry, looked up): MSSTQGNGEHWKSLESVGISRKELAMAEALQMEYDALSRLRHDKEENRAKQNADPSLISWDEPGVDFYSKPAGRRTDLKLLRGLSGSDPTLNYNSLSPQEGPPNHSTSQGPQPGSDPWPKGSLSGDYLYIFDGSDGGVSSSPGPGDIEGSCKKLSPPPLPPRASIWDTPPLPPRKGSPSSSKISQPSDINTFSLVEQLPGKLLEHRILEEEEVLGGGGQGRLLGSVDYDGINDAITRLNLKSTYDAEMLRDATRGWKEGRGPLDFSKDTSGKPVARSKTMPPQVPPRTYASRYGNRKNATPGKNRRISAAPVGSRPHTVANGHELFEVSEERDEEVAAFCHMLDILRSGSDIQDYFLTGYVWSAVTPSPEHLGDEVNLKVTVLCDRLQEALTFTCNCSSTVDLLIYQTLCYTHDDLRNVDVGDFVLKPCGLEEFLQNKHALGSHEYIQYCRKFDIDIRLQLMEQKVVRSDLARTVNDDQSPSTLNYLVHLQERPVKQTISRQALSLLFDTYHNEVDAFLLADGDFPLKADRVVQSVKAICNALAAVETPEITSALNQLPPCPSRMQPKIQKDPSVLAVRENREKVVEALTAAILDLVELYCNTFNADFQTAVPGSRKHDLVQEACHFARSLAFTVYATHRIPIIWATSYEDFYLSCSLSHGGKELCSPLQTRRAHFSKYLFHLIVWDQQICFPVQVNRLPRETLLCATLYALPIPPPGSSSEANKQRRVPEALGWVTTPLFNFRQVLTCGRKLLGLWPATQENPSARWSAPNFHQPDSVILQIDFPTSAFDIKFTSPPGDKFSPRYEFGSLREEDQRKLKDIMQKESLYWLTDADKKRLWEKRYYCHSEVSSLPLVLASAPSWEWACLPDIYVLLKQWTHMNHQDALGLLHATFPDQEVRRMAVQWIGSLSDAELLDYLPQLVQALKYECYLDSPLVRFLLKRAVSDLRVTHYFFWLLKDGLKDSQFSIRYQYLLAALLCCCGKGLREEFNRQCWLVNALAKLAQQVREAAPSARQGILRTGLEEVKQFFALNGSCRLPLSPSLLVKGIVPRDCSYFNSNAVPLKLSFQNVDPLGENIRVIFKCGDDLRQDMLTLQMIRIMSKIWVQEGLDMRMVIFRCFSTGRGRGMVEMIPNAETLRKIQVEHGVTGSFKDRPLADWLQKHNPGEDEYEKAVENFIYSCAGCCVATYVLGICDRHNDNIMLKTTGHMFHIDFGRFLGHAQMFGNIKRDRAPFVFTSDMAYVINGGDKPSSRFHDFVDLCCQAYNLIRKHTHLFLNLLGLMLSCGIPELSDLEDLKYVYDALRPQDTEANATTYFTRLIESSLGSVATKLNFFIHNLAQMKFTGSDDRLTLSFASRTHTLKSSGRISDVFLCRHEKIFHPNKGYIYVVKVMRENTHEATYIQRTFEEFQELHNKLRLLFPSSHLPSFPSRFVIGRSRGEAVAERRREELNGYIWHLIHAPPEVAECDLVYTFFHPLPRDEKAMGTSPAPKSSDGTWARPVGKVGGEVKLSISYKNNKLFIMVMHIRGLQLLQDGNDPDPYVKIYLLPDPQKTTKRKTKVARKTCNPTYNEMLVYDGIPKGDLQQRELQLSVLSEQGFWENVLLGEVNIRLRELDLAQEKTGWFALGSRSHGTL

[28] = molecular target: PIK3CA (human) (UniProt P42336)
[29] = molecular target: PIM3 (human) (UniProt Q86V86)
[30] = molecular target: PIP5K1A (human) (UniProt Q99755)
PIP5K1A (human), sequence (Q99755 whole entry, looked up): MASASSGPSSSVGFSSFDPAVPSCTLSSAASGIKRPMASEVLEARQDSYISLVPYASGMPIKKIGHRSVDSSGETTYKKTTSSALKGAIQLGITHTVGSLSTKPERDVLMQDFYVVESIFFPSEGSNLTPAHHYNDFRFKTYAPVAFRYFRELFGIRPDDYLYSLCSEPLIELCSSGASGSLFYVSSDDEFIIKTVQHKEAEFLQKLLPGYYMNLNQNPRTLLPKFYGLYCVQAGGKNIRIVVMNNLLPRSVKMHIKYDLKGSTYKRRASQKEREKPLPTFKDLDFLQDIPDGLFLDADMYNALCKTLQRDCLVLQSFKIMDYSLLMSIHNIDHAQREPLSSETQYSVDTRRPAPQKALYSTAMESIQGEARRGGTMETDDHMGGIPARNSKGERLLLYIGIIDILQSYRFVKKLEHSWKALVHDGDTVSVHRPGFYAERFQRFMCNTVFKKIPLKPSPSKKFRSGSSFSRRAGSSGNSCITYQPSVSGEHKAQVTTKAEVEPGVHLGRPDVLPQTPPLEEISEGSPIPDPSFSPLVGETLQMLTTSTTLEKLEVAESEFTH

[31] = molecular target: PLK1 (human) (UniProt P53350)
[32] = molecular target: PRKACA (human) (UniProt P17612)
[33] = molecular target: RPS6KB1 (human) (UniProt P23443)
[34] = molecular target: SGK1 (human) (UniProt O00141)
[35] = molecular target: SRC (human) (UniProt P12931)
[36] = molecular target: SRPK3 (human) (UniProt Q9UPE1)
[37] = molecular target: STK16 (human) (UniProt O75716)
[38] = molecular target: STK17A (human) (UniProt Q9UEE5)
STK17A (human), sequence (Q9UEE5 whole entry, looked up): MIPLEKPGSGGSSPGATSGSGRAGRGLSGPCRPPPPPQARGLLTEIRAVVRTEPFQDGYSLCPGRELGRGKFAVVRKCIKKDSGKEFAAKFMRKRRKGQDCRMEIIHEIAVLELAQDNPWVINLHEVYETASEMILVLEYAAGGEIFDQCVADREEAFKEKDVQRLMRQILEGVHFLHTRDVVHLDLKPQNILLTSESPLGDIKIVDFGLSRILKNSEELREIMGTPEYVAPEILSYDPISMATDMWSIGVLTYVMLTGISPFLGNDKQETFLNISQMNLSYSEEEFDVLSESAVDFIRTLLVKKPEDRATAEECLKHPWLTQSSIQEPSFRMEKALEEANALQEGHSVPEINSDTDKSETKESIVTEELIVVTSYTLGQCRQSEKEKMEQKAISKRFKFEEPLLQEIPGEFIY

[39] = molecular target: STK32C (human) (UniProt Q86UX6)
[40] = molecular target: TSSK1B (human) (UniProt Q9BXA7)
TSSK1B (human), sequence (Q9BXA7 whole entry, looked up): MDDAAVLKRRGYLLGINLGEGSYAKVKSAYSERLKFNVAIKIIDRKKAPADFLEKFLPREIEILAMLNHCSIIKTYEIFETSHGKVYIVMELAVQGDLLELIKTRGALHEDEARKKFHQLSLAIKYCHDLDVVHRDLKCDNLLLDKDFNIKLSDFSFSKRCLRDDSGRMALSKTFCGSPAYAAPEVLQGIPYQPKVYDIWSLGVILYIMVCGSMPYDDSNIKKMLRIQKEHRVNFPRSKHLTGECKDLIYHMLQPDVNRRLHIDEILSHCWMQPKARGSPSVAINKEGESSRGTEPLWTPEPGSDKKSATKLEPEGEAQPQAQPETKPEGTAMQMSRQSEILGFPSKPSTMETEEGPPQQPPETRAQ

[41] = molecular target: WNK1 (human) (UniProt Q9H4A3)

AAK1 (human), sequence (Q2M2I8 whole entry, looked up): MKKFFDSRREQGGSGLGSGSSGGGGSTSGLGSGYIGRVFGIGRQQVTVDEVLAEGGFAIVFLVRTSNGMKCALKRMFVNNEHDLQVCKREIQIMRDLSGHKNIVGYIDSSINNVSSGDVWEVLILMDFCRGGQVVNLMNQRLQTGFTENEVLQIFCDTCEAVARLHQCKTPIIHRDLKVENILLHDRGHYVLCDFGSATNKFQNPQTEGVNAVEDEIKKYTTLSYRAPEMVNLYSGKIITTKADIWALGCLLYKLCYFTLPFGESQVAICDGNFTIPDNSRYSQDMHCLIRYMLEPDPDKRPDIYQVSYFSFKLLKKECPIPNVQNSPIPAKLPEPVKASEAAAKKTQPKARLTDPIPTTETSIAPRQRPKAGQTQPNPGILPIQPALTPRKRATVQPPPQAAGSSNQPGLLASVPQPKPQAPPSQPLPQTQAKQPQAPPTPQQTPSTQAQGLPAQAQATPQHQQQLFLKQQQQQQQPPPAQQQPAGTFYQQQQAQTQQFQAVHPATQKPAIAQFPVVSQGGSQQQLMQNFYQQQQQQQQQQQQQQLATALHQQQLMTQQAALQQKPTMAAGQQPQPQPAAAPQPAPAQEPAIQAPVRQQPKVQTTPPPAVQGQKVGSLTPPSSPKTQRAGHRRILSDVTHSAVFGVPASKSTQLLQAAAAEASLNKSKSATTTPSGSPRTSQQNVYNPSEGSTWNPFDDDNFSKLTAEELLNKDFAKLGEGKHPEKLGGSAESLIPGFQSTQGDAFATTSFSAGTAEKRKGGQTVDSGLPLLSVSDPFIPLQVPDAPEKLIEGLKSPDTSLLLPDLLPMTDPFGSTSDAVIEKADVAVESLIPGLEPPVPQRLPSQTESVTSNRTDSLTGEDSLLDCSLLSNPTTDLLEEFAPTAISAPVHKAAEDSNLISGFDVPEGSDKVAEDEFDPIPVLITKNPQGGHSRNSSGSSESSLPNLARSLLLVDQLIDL
AURKA (human), sequence (O14965 whole entry, looked up): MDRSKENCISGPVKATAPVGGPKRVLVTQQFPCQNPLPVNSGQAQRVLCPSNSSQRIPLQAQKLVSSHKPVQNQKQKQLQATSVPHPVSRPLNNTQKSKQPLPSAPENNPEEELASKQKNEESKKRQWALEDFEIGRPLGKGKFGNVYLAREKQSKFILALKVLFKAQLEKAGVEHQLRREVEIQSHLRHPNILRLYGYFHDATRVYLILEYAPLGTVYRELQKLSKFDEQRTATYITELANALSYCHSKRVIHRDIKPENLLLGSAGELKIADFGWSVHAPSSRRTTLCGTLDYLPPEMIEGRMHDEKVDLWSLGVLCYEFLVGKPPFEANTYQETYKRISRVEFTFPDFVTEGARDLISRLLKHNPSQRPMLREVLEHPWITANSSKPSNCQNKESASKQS

SMILES: O=C(Nc1ccc(Oc2ncnc3[nH]ncc23)cc1)Nc1ccc(Cl)c(C(F)(F)F)c1
- kinase still bound, per cent of control [1]: 85%
- kinase still bound, per cent of control [2]: 89%
- kinase still bound, per cent of control [3]: 23%
- kinase still bound, per cent of control [4]: 4.7%
- kinase still bound, per cent of control [5]: 3.8%
- kinase still bound, per cent of control [6]: 0.55%
- kinase still bound, per cent of control [7]: 23%
- kinase still bound, per cent of control [8]: 98%
- kinase still bound, per cent of control [9]: 44%
- kinase still bound, per cent of control [10]: 100%
- kinase still bound, per cent of control [11]: 65%
- kinase still bound, per cent of control [12]: 0.3%
- kinase still bound, per cent of control [13]: 100%
- kinase still bound, per cent of control [14]: 88%
- kinase still bound, per cent of control [15]: 96%
- kinase still bound, per cent of control [16]: 100%
- kinase still bound, per cent of control [17]: 51%
- kinase still bound, per cent of control [18]: 89%
- kinase still bound, per cent of control [19]: 1.7%
- kinase still bound, per cent of control [20]: 100%
- kinase still bound, per cent of control [21]: 100%
- kinase still bound, per cent of control [22]: 100%
- kinase still bound, per cent of control [23]: 100%
- kinase still bound, per cent of control [24]: 86%
- kinase still bound, per cent of control [25]: 100%
- kinase still bound, per cent of control [26]: 0.4%
- kinase still bound, per cent of control [27]: 80%
- kinase still bound, per cent of control [28]: 100%
- kinase still bound, per cent of control [29]: 94%
- kinase still bound, per cent of control [30]: 73%
- kinase still bound, per cent of control [31]: 100%
- kinase still bound, per cent of control [32]: 69%
- kinase still bound, per cent of control [33]: 69%
- kinase still bound, per cent of control [34]: 88%
- kinase still bound, per cent of control [35]: 70%
- kinase still bound, per cent of control [36]: 100%
- kinase still bound, per cent of control [37]: 100%
- kinase still bound, per cent of control [38]: 62%
- kinase still bound, per cent of control [39]: 96%
- kinase still bound, per cent of control [40]: 86%
- kinase still bound, per cent of control [41]: 100%
